# Source: publication PMC3871636 (PLoS ONE, 2013)
# Legend:
# [1] = target: CYP3A4 (double-labeled (C64/C468)-DY/ER) (Homo sapiens, UniProt P08684, form not given/S18F); assay: Steady-state LRET titration (delayed emission); format: binding; conditions: human, purified double-labeled CYP3A4 C64/C468-DY/ER protein, pH 7.4
# Method: (§1) All absorbance and fluorescence assays (including the time-resolved fluorescence measurements) were performed at a protein concentration ≤1 µM at 25°C with continuous stirring. Absorbance spectra were recorded with an S2000 rapid scanning CCD spectrometer (Ocean Optics). Ligand binding assays were done in 100 mM Na-Hepes buffer, pH 7.4, containing 0.5 mM EDTA.
# (§2) Fluorescence-based ligand binding assays were done under anaerobic conditions. Anaerobiosis was achieved using an oxygen-scavenging system consisting of protecatechuate-3,4-dioxygenase (0.5 units/ml) and 5 mM protocatechuic acid. The steady state and time-resolved phosphorescence measurements were performed with the use of a Cary Eclipse fluorescence spectrophotometer (Varian/Agilent Technologies). The excitation wavelength was set to 540 nm. Spectra were taken from 650 to 860 nm with 100 µs delay.
# (§3) Quantitative interpretation of LRET results was also based on the use of PCA applied to a series of emission spectra normalized on integral intensity. […] Intensity of the donor and acceptor fluorescence obtained in this way were used in determination of the efficiency of steady-state LRET using the equation [drawing 1] (Eq.1) where I ad is emission intensity of the acceptor, I da is the residual donor emission in the presence of acceptor (I da), Φ a and Φ d are the quantum yield of the fluorescence of acceptor and the quantum yield of the phosphorescence of donor, respectively.
# (§4) Distances were calculated using the equation: [drawing 3] (Eq.3) where R 0 is the Förster distance, and R is the distance between the donor and acceptor. R 0 was calculated with the use of PhotoChemCad software. In these calculations, we used the values of the orientation factor (κ^2) and the refractive index (n) of 0.667 and 1.4, respectively.
# (§5) When fitting the results of titration experiments, where the changes in the monitored signal A S (fraction of the enzyme in the high-spin state, intensity or the lifetime of the donor phosphorescence at a given substrate concentration) were assumed to be proportional to [ES], this equation was complemented with the offset A 0 and the scaling factor A max to yield the following relationship: [drawing 5] (Eq.5)
# [2] = target: CYP3A4 (double-labeled (C64/C468)-ER/DY) (Homo sapiens, UniProt P08684, form not given/S18F); assay: Steady-state LRET titration (delayed emission); format: binding; conditions: human, purified double-labeled CYP3A4 C64/C468-ER/DY protein, pH 7.4
# Method: as §1, §2, §3, §4, §5
# [3] = target: T1, double-labeled CYP3A4 (C64/C468)-ER/DY (Homo sapiens, UniProt P08684, S18F, form not given); assay: Steady-state LRET titration (delayed emission); format: binding
# Method: as §1, §2, §3, §4, §5
# [4] = target: T2, double-labeled CYP3A4 (C64/C468)-DY/ER (Homo sapiens, UniProt P08684, S18F, form not given); assay: Steady-state LRET titration (delayed emission); format: binding
# Method: as §1, §2, §3, §4, §5
# [5] = target: T3, double-labeled CYP3A4 C377/C468-DY/ER (Homo sapiens, UniProt P08684, S18F, form not given); assay: Steady-state LRET titration (delayed emission); format: binding; conditions: Table S2; protein C377/C468-ER/DY; same ligand concentrations
# Method: as §1, §2, §3, §4, §5
# [6] = target: T1, double-labeled CYP3A4 (C64/C468)-ER/DY; assay: Time-resolved LRET (phosphorescence lifetime measurements)
# Text: (§6) The excitation wavelength was set to 540 nm.
# [7] = target: T2, double-labeled CYP3A4 (C64/C468)-DY/ER; assay: as above
# Text: as §6
# [8] = target: T3, double-labeled CYP3A4 C377/C468-DY/ER; assay: as above
# Text: as §6
# [9] = target: T4, double-labeled CYP3A4 C64/C121-DY/ER (Homo sapiens, UniProt P08684, A121C/C239S/C377S/C468A/C98S/S18F); assay: as above
# Method: as §1, §2
# The treatment of the time-resolved decay traces was performed using a bi-exponential approximation. The efficiency of time-resolved LRET was calculated using the equation [drawing 2] (Eq.2)
# In this equation τda and τd designate the average lifetime of the excited state of the donor in the presence and absence of the acceptor, respectively. These average lifetimes are determined as τ = α1τ1+α2τ2, where τ1,2 and α1,2 stay for the lifetime and the relative amplitude of each of the two exponential terms. In our calculations of the lifetime in double-labeled C64/C468, C377/C468 and C64/C121 proteins we used the lifetimes of phosphorescence measured with the respective proteins labeled with ERIA at a label:protein ratio 2∶1 as the estimates of τd.
# as §4
# [10] = target: CYP3A4 (double-labeled C64/C468-ER/DY) (Homo sapiens, UniProt P08684, form not given/S18F); assay: Ligand-induced spin shift, absorbance titration; format: binding; conditions: human, purified double-labeled CYP3A4 C64/C468-ER/DY protein, pH 7.4
# Method: as §1
# (§7) Absorbance spectra obtained in titration experiments were analyzed with a principal component analysis (PCA) procedure complemented with least-square approximation of the principal vectors with a combination of the prototypical spectra of the CYP3A4 low-spin, high-spin and Type II-substrate-bound ferric CYP3A4 P450 states as described, [31].
# as §5
# [11] = target: CYP3A4 (C64/C468 mutant) (Homo sapiens, UniProt P08684, form not given/S18F); assay: Ligand-induced spin shift, absorbance titration; format: binding; conditions: human, purified CYP3A4(C64/C468) mutant protein, pH 7.4
# Method: as §1, §7, §5
# [12] = target: CYP3A4 (C377/C468 mutant) (Homo sapiens, UniProt P08684, form not given/S18F); assay: Ligand-induced spin shift, absorbance titration; format: binding; conditions: human, purified CYP3A4(C377/C468) mutant protein, pH 7.4
# Method: as §1, §7, §5
# [13] = target: T4, double-labeled CYP3A4 C64/C121-DY/ER; assay: Steady-state LRET titration (delayed emission); conditions: Table S2; protein C64/C121-ER/DY; same ligand concentrations
# Method: as §1, §2, §3, §4, §5
# [14] = Table S2, C64/C468-ER/DY, same ligand concentrations
# [15] = Table S2, C64/C468-DY/ER, same ligand concentrations
# [16] = Table S1, (C64/C468)-ER/DY, same ligand concentrations
# [17] = Table S1, (C64/C468)-DY/ER, same ligand concentrations
# [18] = Table S1, protein (C377/C468)-ER/DY, same ligand concentrations
# [19] = Table S2, protein C377/C468-ER/DY, same ligand concentrations
# [20] = Table S1, protein (C64/C121)-ER/DY, same ligand concentrations
# [21] = Table S2, protein C64/C121-ER/DY, same ligand concentrations
# T4 sequence (P08684 with tags, fused parts or gaps S18F/C98S/A121C/C239S/C377S/C468A limits assumed): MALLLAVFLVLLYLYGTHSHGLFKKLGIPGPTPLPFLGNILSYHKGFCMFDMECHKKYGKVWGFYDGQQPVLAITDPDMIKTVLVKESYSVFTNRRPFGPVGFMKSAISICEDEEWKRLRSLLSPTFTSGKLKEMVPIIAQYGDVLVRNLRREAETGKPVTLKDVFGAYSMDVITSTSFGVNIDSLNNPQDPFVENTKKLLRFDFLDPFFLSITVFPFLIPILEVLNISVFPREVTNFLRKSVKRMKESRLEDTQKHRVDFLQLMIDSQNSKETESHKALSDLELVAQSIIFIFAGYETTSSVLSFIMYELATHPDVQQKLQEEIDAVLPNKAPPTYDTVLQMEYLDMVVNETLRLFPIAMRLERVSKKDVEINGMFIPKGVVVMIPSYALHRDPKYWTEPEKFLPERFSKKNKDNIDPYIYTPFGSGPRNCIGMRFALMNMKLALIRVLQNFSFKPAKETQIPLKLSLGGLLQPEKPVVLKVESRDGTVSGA
# T3 sequence (P08684 13-503 S18F, form open): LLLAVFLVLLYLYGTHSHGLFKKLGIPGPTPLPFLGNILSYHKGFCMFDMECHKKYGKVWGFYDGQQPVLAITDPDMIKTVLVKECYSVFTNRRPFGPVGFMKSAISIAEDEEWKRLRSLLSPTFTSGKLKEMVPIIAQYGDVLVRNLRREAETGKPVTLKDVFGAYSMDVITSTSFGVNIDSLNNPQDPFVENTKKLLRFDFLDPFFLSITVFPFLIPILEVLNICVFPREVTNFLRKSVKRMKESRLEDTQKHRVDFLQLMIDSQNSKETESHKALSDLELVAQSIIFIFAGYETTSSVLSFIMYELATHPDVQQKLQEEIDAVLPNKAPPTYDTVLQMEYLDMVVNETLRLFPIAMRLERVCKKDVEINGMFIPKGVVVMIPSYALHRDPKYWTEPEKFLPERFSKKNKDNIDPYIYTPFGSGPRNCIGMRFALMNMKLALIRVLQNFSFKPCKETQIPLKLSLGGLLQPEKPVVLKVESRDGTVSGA
# T2 sequence (P08684 13-503 S18F, form open): as above
# T1 sequence (P08684 13-503 S18F, form open): as above
# Sequence of CYP3A4 (C377/C468 mutant) (P08684 13-503 S18F, form open): as above
# Sequence of CYP3A4 (double-labeled (C64/C468)-ER/DY) (P08684 13-503 S18F, form open): as above
# Sequence of CYP3A4 (double-labeled C64/C468-ER/DY) (P08684 13-503 S18F, form open): as above
# Sequence of CYP3A4 (double-labeled (C64/C468)-DY/ER) (P08684 13-503 S18F, form open): as above
# Sequence of CYP3A4 (C64/C468 mutant) (P08684 13-503 S18F, form open): as above
smiles,measurement,setting,value
"C[C@]12CC[C@H]3[C@@H](CCC4=CC(=O)CC[C@@]43C)[C@@H]1CC[C@@H]2O [Testosterone, testosterone]",Kd,[1],16.4 ± 3.5 µM
same,Kd,[2],22.8 ± 3.6 µM
same,"ΔR (change in interprobe distance), steady-state fluorescence",[3]; (C64/C468)-ER/DY,3.1±1.0 Å
same,"R (interprobe distance with ligand), steady-state measurements",[3]; [14],42.2 ± 1.0 Å
same,"ΔR, steady-state measurements",[3]; [14],3.1 ± 1.0 Å
same,"ΔR (change in interprobe distance), steady-state fluorescence",[4]; (C64/C468)-DY/ER,5.5±1.9 Å
same,"R (interprobe distance with ligand), steady-state measurements",[4]; [15],40.4 ± 1.9 Å
same,"ΔR, steady-state measurements",[4]; [15],5.5 ± 1.9 Å
same,"R (interprobe distance with ligand), steady-state measurements",[5],46.7 ± 0.7 Å
same,"ΔR, steady-state measurements",[5],2.0 ± 0.7 Å
same,"ΔR (change in interprobe distance), lifetime measurements","[6]; (C64/C468)-ER/DY, nearly-saturating ligand: ANF 100 µM, bromocriptine 2.5 µM, cholesterol 50 µM, testosterone 100 µM",4.5±0.5 Å
same,τ1 (phosphorescence decay time with ligand),"[6]; Table S1, (C64/C468)-ER/DY, 1-PB 40 µM, ANF 100 µM, BCT 2.5 µM, cholesterol 100 µM, testosterone 100 µM, bi-exponential fit",67 ± 6 µs
same,F1 (fraction of first exponential),[6]; [16],48 ± 2%
same,τ2 (phosphorescence decay time with ligand),[6]; [16],267 ± 11 µs
same,τav (average phosphorescence lifetime with ligand),[6]; [16],171 ± 4 µs
same,"R (interprobe distance with ligand), lifetime measurements",[6]; [14],40.8 ± 0.6 Å
same,"ΔR, lifetime measurements",[6]; [14],4.5 ± 0.6 Å
same,τ1 (phosphorescence decay time with ligand),"[7]; Table S1, (C64/C468)-DY/ER, 1-PB 40 µM, ANF 100 µM, BCT 2.5 µM, cholesterol 100 µM, testosterone 100 µM, bi-exponential fit",69 ± 1 µs
same,F1 (fraction of first exponential),[7]; [17],39 ± 8%
same,τ2 (phosphorescence decay time with ligand),[7]; [17],247 ± 2 µs
same,τav (average phosphorescence lifetime with ligand),[7]; [17],176 ± 2 µs
same,"R (interprobe distance with ligand), lifetime measurements",[7]; [15],41.6 ± 0.3 Å
same,"ΔR, lifetime measurements",[7]; [15],4.8 ± 0.3 Å
same,τ1 (phosphorescence decay time with ligand),"[8]; Table S1, protein (C377/C468)-ER/DY, 1-PB 40 µM, ANF 100 µM, BCT 2.5 µM, cholesterol 100 µM, testosterone 100 µM, bi-exponential fit",42 ± 9 µs
same,F1 (fraction of first exponential),[8]; [18],26 ± 7%
same,τ2 (phosphorescence decay time with ligand),[8]; [18],193 ± 5 µs
same,τav (average phosphorescence lifetime with ligand),[8]; [18],152 ± 12 µs
same,"R (interprobe distance with ligand), lifetime measurements",[8]; [19],45.3 ± 3.0 Å
same,"ΔR, lifetime measurements",[8]; [19],8.5 ± 3.0 Å
same,τ1 (phosphorescence decay time with ligand),"[9]; Table S1, protein (C64/C121)-ER/DY, 1-PB 40 µM, ANF 100 µM, BCT 2.5 µM, cholesterol 100 µM, testosterone 100 µM, bi-exponential fit",66 ± 9 µs
same,F1 (fraction of first exponential),[9]; [20],38 ± 4%
same,τ2 (phosphorescence decay time with ligand),[9]; [20],228 ± 23 µs
same,τav (average phosphorescence lifetime with ligand),[9]; [20],165 ± 9 µs
same,"R (interprobe distance with ligand), lifetime measurements",[9]; [21],36.9 ± 0.7 Å
same,"ΔR, lifetime measurements",[9]; [21],1.9 ± 0.7 Å
same,Kd,[10],38 ± 6 µM
same,Kd,[11],39 ± 10 µM
same,Kd,[12],51 ± 8 µM
same,"R (interprobe distance with ligand), steady-state measurements",[13],43.9 ± 0.5 Å
same,"ΔR, steady-state measurements",[13],1.3 ± 0.5 Å
